# Laboratory results: US10975114B2, “Bis 2′-5′-RR-(3′F-A)(3′F-A) cyclic dinucleotide compound and uses thereof” (ADURO BIOTECH, INC., priority 2017, dated 2021)
# Legend:
# [1] = system: THP1 cells (hSTING HAQ allele); test: THP1-Dual IRF-3 luciferase reporter assay without digitonin; format: cell-based, human; settings: Homo sapiens, THP-1, 0.5 h, 30 min compound incubation, overnight readout of secreted luciferase
# Procedure: Cells were washed with fresh media and incubated for 30 min at 37° C. with 5% CO2 with compounds in 3-fold titration steps from 2,000 to 0.0338 μM in PB buffer (50 mM 4-(2-hydroxyethyl)-1-piperazineethanesulfonic acid, 100 mM KCl, 3 mM MgCl2, 0.1 mM dithiothreitol, 85 mM sucrose, 1 mM ATP, 0.1 mM GTP and 0.2% bovine serum albumin). After 30 minutes, cells were washed and fresh RPMI media containing 10% FBS was added, and cells were incubated at 37° C. with 5% CO2. Cell culture supernatants from each sample were collected after overnight incubation, and 10 μl of the cell culture supernatants was added to 50 μl QUANTI-Luc reagent (Invivogen). Type I interferon activation was determined by measuring secreted luciferase levels on a SpectraMax M3 spectrophotometer (Molecular Devices). The EC50 value for the same compounds as tested in Example 4 was determined from the dose-response curve for the 10 concentrations from the serial dilution of the compounds in this assay.
# [2] = molecular target: T1, hSTING WT (Homo sapiens, UniProt Q86WV6, H232R); test: ITC binding assay, hSTING WT; settings: 25° C., protein 0.1 mM, ligand 0.35 mM
# T1 construct: made in house; host or cells: BL21 Rosetta 2 (DE3) E. coli
# Procedure: (§1) The WT and REF proteins were similarly prepared for use in an ITC binding assay. Expression plasmids were transformed into BL21 Rosetta 2 (DE3) (EMD Millipore) E. coli cells for protein expression. 50 ml starter cultures were grown overnight in 2×YT supplemented with 50 μg/ml kanamycin and 30 μg/ml chloramphenicol. Multi-liter large scale cultures of the same growth media as the starter were inoculated at a ratio of 1:1,000 (V/V) and allowed to grow at 37° C. to an optical density of 0.6, cultures were then shifted to 18° C. Protein expression was induced by the addition of isopropyl β-D-1-thiogalactopyranoside to a final concentration of 0.3 mM. Protein expression was allowed to proceed for 18-24 hrs. Pelleted cells were resuspended in 50 mM Tris pH 7.5, 500 mM NaCl, 10% glycerol, 20 mM imidazole, 1 mM TCEP and complete protease inhibitor cocktail (Sigma). Cells were lysed by sonication (Branson) and insoluble material was removed by centrifugation. Proteins were purified on Ni-NTA resin and concentrated to >10 mg/ml. 6×H-SUMO-STING LBD was further purified by gel filtration chromatography using a High Load 26/600 Superdex 75 column (GE Healthcare) in a buffer of 20 mM Tris pH 7.5, 150 mM NaCl, 5% glycerol and 1 mM TCEP. Peak fractions were concentrated to between 10-15 mg/ml via ultrafiltration aliquoted and flash frozen in liquid nitrogen and stored at […]
# The resulting amino acid sequence for the STING WT allele is as follows: • Allele Name: WT • Amino Acid Sequence:
# (§2) Proteins were dialyzed overnight in 20 mM HEPES pH 7.5, 150 mM NaCl. Insoluble material was removed by centrifugation at 31,000×g. The invention compound 2′2′-RR-(3′F-A)(3′F-A) and comparison STING agonists 3′3′-RR-(2′F-A)(2′F-A); 2′3′-RR-(3′F-A)(2′F-A) were resuspended in dialysis buffer. The concentration of both the protein and ligands were checked by spectroscopy and adjusted if necessary.
# (§3) STING protein was added to the ITC sample cell at a final concentration of 0.1 mM. The CDN ligand was at a final concentration of 0.35 mM in the syringe. […]
# [3] = molecular target: T2, REF allele hSTING (Homo sapiens, UniProt Q86WV6); test: DSF Tm shift, purified hSTING REF allele (AA140-379); format: binding; settings: 1 mg/ml STING AA140-379, ligand 1 mM
# T2 construct: 6xHis-SUMO (with TEV site) (N, cleaved yes); made in house; host or cells: Rosetta2 (DE3) E. coli
# Procedure: (§4) Cells were grown in lysogeny broth at 37° C. until a […] absorbance of 0.6 was reached. […] Cells were lysed using an S-450D sonifier (Emmerson industrial) on ice. […] Protein was aliquoted, flash frozen in liquid nitrogen and stored at −80° C. until use.
# (§5) The protein is heated in the presence of a dye that binds to and fluoresces in hydrophobic environments. The protein is thermally denatured by heating resulting in increased dye binding to the unfolded protein and fluorescence. The temperature midpoint (Tm) of a proteins denaturation is established by calculating the half maximal value of the denaturation curve. The temperature midpoint of the protein in the presence of a ligand is directly related to the affinity of the ligand for the protein and therefore its ability to stabilize the protein at higher temperatures.
# [4] = molecular target: T3, hSTING REF allele (Homo sapiens, UniProt Q86WV6); test: ITC binding assay, hSTING REF allele; settings: 25° C., protein 0.1 mM, ligand 0.35 mM
# T3 construct: made in house; host or cells: BL21 Rosetta 2 (DE3) E. coli
# Procedure: as §1
# The resulting amino acid sequences for the STING REF allele is as follows: • Allele Name: REF • Amino Acid Sequence:
# as §2, §3
# [5] = molecular target: T4, HAQ allele hSTING (Homo sapiens, UniProt Q86WV6, G230A/H232R/R293Q); test: DSF Tm shift, purified hSTING HAQ allele (AA140-379); format: binding; settings: 1 mg/ml STING AA140-379, ligand 1 mM
# T4 construct: 6xHis-SUMO (with TEV site) (N, cleaved yes); made in house; host or cells: Rosetta2 (DE3) E. coli
# Procedure: as §4, §5
# [6] = molecular target: T5, wild type hSTING (Homo sapiens, UniProt Q86WV6, H232R); test: DSF Tm shift, purified hSTING WT (AA140-379); format: binding; settings: 1 mg/ml STING AA140-379, ligand 1 mM
# T5 construct: 6xHis-SUMO (with TEV site) (N, cleaved yes); made in house; host or cells: Rosetta2 (DE3) E. coli
# Procedure: as §4, §5
EC50 [1],Kd [2],hSTING Tm Shift REF [3],Kd [4],hSTING Tm Shift HAQ [5],hSTING Tm Shift WT [6],Structure (SMILES)
4500 nM,109 nM,10.5 °C,333 nM,26 °C,14.5 °C,"Nc1ncnc2c1ncn2[C@@H]1O[C@@H]2CO[P@@](=O)(S)O[C@@H]3[C@H](F)[C@@H](OC[P@@](=O)(S)O[C@H]2[C@H]1F)O[C@H]3n1cnc2c(N)ncnc21 [2′3′-RR-(3′F-A)(2′F-A), dithio-[Rp,Rp]-cyclic-[3′F-A(2′,5′)p-2′F-A(3′,5′)p]]"
15600 nM,74 nM,–,591 nM,–,–,"Nc1ncnc2c1ncn2[C@@H]1O[C@@H]2CO[P@@](=O)(S)O[C@H]3[C@@H](F)[C@H](n4cnc5c(N)ncnc54)O[C@@H]3CO[P@@](=O)(S)O[C@H]2[C@H]1F [3′3′-RR-(2′F-A)(2′F-A), (2R,3R,3aR,5R,7aR,9R,10R,10aR,12R,14aR)-2,9-bis(6-amino-9H-purin-9-yl)-3,10-difluoro-5,12-dimercaptooctahydro-2H,7H-difuro[3,2-d:3′,2′-j][1,3,7,9]tetraoxa[2,8]diphosphacyclododecine 5,12-dioxide]"
